# Patent US4377574A, “Contraceptive treatment of male mammals” (The Salk Institute For Biological Studies, priority 1981, dated 1983)
# Where a SMILES comes first, the peptide text is derived from it. [ ]: non-standard residue; d: D form. dPhe(4-Cl) = N[C@H](Cc1ccc(Cl)cc1)C(=O)O; NMeL = CN[C@@H](CC(C)C)C(=O)O; ΔPro = O=C(O)[C@@H]1C=CCN1
# Columns and labels:
# [1] = test system: pituitary gland of mammalians; conditions: cited from earlier work
# male rats = assay: contraceptive treatment of male rats, 14-day daily injection; assay type: in vivo, rat; conditions: 14-day treatment
# From the text: The peptide is used at a level effective to reduce testes and seminal vesicles weights and also to inhibit spermatogenesis after a 14-day administration to male rats. […] Prostate weights of male rats recover in 2-3 weeks and seminal vesicles weights in 4-5 weeks. It is preferred to use dosage levels in the range of from about 0.1 to about 1 milligram per rat per day, which can be administered without detrimental side effects.
# (§1) Male rats (about 320 grams each) are each treated with 1 milligram of the peptide synthesized in Example I, once a day, for 14 days by injection in 0.2 ml. of corn oil. All the rats show a decrease in testes and seminal vesicles weight, spermatogenesis and plasma androgen levels.
# Full recovery of testes and seminal vesicle weights and spermatogenesis ultimately occurs following cessation of the 14-day peptide administration. […] Fertility, as assessed by the ability to impregnate females, is restored in all of the rats which have not been sacrificed within 6 weeks after cessation of the injections.
# as §1, with “A first group (I) of male” for “Male”, “Peptide A” for “the peptide”, “III, every day” for “I, once a day,”, “days,” for “days”, “levels. […]” for “levels.”
Molecule,potency as an inhibitor for the release of gonadotropins relative to the same peptide with Gly in the 6-position [1],side effects / damage (male rats)
"[des His^2, D--Ala^6 ] LRF",3 times,
"CC(=O)N1CC=C[C@H]1C(=O)N[C@H](Cc1ccc(Cl)cc1)C(=O)N[C@H](Cc1c[nH]c2ccccc12)C(=O)N[C@@H](CO)C(=O)N[C@@H](Cc1ccc(O)cc1)C(=O)N[C@H](Cc1c[nH]c2ccccc12)C(=O)N(C)[C@@H](CC(C)C)C(=O)N[C@@H](CCCNC(=N)N)C(=O)N1CCC[C@H]1C(=O)NCC(N)=O [Example I, [Ac--dehydro Pro^1, pCl--D--Phe^2,D--Trp^3,6,N^α MeLeu^7]--LRF] (Ac-[ΔPro][dPhe(4-Cl)][dW]SY[dW][NMeL]RPG-NH2)",,without harmful side effects or irreversible damage
